US20050153943A1, “Methods of simultaneously treating mucositis and fungal infection” (priority 2002, published 2005)

Columns and labels:
Experiment in all cases: Fungal growth on SABHI agar containing CMT (Example 38)
Assay type in all cases: cell-based
[1] = test system: Penicillium sp. (laboratory isolate); settings: for Growth at 25 μg/ml compared to control at 24 hrs incubation / Growth at 25 μg/ml compared to control at 48 hours: 30° C., growth grade; for Anti-fungal activity (summary in words): 25 μg/ml agar, Example 38
Protocol: (§1) The following fungi were inoculated onto potato dextrose agar (PDA) from stock cultures and incubated aerobically at 30° C.: Aspergillus [NT] 1022, Penicillium sp. (laboratory isolate), Candida albicans, ATCC 14053, and Rhizopus sp. […] The conidia were suspended in 0.9% saline and the turbidity was adjusted to match a 0.5 MacFarland standard (equivalent to approximately 1.5×10^8 cells). Candida albicans was suspended in saline and adjusted to 0.5 MacFarland in a similar manner. These suspensions were diluted 1:100 in sterile 0.9% saline. SABHI Agar (Difco) pH 7.0 was prepared in 100 ml amounts and sterilized at 121° C. for 15 min. […] SABHI Agar plates of each CMT and SAHBI agar without CMT using dimethylsulphoxide (DMSO) as a control were inoculated with 10 μl of conidia suspension of Aspergillus fumigatus, Penicillium sp. and Rhizopus sp. and 10 μl suspension of Candida albicans prepared as described above. The plates were then incubated aerobically for 24 hour and for 48 hours at 30° C. The results are set forth in Table 1 (24 hr. incubation) and Table 2 (48 hr. incubation). [table]

[2] = test system: Candida albicans, ATCC 14053; settings: for Growth at 25 μg/ml compared to control at 24 hrs incubation / Growth at 25 μg/ml compared to control at 48 hours: 30° C., growth grade; for Anti-fungal activity (summary in words): 25 μg/ml agar, Example 38
Protocol: as §1

Rhizopus sp. = settings: for Growth at 25 μg/ml compared to control at 24 hrs incubation / Growth at 25 μg/ml compared to control at 48 hours: 30° C., growth grade
Protocol: as §1

[3] = test system: Aspergillus fumigatus ATCC 1022; settings: for Growth at 25 μg/ml compared to control at 24 hrs incubation / Growth at 25 μg/ml compared to control at 48 hours: 30° C., growth grade; for Anti-fungal activity (summary in words): 25 μg/ml agar, Example 38
Protocol: as §1

Compound	Growth at 25 μg/ml compared to control at 24 hrs incubation [1]	Growth at 25 μg/ml compared to control at 48 hours [1]	Growth at 25 μg/ml compared to control at 24 hrs incubation [2]	Growth at 25 μg/ml compared to control at 48 hours [2]	Growth at 25 μg/ml compared to control at 24 hrs incubation (Rhizopus sp.)	Growth at 25 μg/ml compared to control at 48 hours (Rhizopus sp.)	Growth at 25 μg/ml compared to control at 24 hrs incubation [3]	Growth at 25 μg/ml compared to control at 48 hours [3]	Anti-fungal activity (summary in words) [2]	Anti-fungal activity (summary in words) [1]	Anti-fungal activity (summary in words) (Rhizopus sp.; 25 μg/ml agar, Example 38)	Anti-fungal activity (summary in words) [3]
CC(=O)Nc1cc(N(C)C)c2c(c1O)C(=O)C1=C(O)C3(O)C(=O)C(C(N)=O)=C(O)CC3CC1C2.O=S(=O)(O)O (centres unmarked) [Example 3, 9-Acetamido-4-dedimethylamino-7-dimethylamino-6-demethyl-6-deoxytetracycline sulfate]	0 (complete inhibition of growth.)	4 (Level of growth in the absence of anti-fungal agent (control).)	1 (75% reduction in growth in colonies compared to control.)	4 (Level of growth in the absence of anti-fungal agent (control).)	3 (25% reduction in growth of colonies compared to control.)	1 (75% reduction in growth in colonies compared to control.)	0 (complete inhibition of growth.)	4 (Level of growth in the absence of anti-fungal agent (control).)				
NC(=O)C1=C(O)CC2CC3Cc4c([N+](=O)[O-])ccc(O)c4C(=O)C3=C(O)C2(O)C1=O (centres unmarked) [COL 302, 7-nitro-6-demethyl-6-deoxy-4-dedimethylaminotetracycline]	3 (25% reduction in growth of colonies compared to control.)	4 (Level of growth in the absence of anti-fungal agent (control).)	4 (Level of growth in the absence of anti-fungal agent (control).)	4 (Level of growth in the absence of anti-fungal agent (control).)	4 (Level of growth in the absence of anti-fungal agent (control).)	4 (Level of growth in the absence of anti-fungal agent (control).)	0 (complete inhibition of growth.)	4 (Level of growth in the absence of anti-fungal agent (control).)				
NC(=O)C1=C(O)CC2CC3Cc4ccc([N+](=O)[O-])c(O)c4C(=O)C3=C(O)C2(O)C1=O (centres unmarked) [COL 303, 9-nitro-6-demethyl-6-deoxy-4-dedimethylaminotetracycline]	3 (25% reduction in growth of colonies compared to control.)	4 (Level of growth in the absence of anti-fungal agent (control).)	3 (25% reduction in growth of colonies compared to control.)	4 (Level of growth in the absence of anti-fungal agent (control).)	4 (Level of growth in the absence of anti-fungal agent (control).)	4 (Level of growth in the absence of anti-fungal agent (control).)		4 (Level of growth in the absence of anti-fungal agent (control).)				
CN(C)c1cc([N+]#N)c(O)c2c1CC1CC3CC(O)=C(C(N)=O)C(=O)C3(O)C(O)=C1C2=O.O=S(=O)([O-])O (centres unmarked) [Example 4, 4-Dedimethylamino-7-dimethylamino-6-demethyl-6-deoxy-9-diazoniumtetracycline sulfate]	3 (25% reduction in growth of colonies compared to control.)	0 (complete inhibition of growth.)	1 (75% reduction in growth in colonies compared to control.)	4 (Level of growth in the absence of anti-fungal agent (control).)	4 (Level of growth in the absence of anti-fungal agent (control).)	4 (Level of growth in the absence of anti-fungal agent (control).)	0 (complete inhibition of growth.)	1 (75% reduction in growth in colonies compared to control.)				
4-Dedimethylamino-7-dimethylamino-6-demethyl-6-deoxy-9-ethoxythiocarbonylthio-tetracycline sulfate [Example 7]	3 (25% reduction in growth of colonies compared to control.)	4 (Level of growth in the absence of anti-fungal agent (control).)	0 (complete inhibition of growth.)	0 (complete inhibition of growth.)	4 (Level of growth in the absence of anti-fungal agent (control).)	3 (25% reduction in growth of colonies compared to control.)	0 (complete inhibition of growth.)	4 (Level of growth in the absence of anti-fungal agent (control).)				
CC1(O)c2cccc(O)c2C(=O)C2=C(O)C3C(=O)C(C(N)=O)=C(O)CC3CC21 (stereo not drawn) [COL 7, 4-dedimethylamino-12α-deoxytetracycline]									strong activity			
O=C(NCN1CCNCC1)C1=C(O)CC2CC3Cc4cccc(O)c4C(=O)C3=C(O)C2(O)C1=O (centres unmarked) [COL 315, 2-CONHCH2-piperazin-1-yl-6-demethyl-6-deoxy-4-dedimethylaminotetracycline]	0 (complete inhibition of growth.)	0 (complete inhibition of growth.)	0 (complete inhibition of growth.)	0 (complete inhibition of growth.)	1 (75% reduction in growth in colonies compared to control.)	1 (75% reduction in growth in colonies compared to control.)	0 (complete inhibition of growth.)	0 (complete inhibition of growth.)	activity against all the fungi tested	activity against all the fungi tested	activity against all the fungi tested	activity against all the fungi tested
CN(C)CC(=O)Nc1ccc2c(c1O)C(=O)C1=C(O)C3(O)C(=O)C(C(N)=O)=C(O)CC3CC1C2 (centres unmarked) [COL 309, 9-dimethylaminoacetamido-6-demethyl-6-deoxy-4-dedimethylaminotetracycline]	3 (25% reduction in growth of colonies compared to control.)	4 (Level of growth in the absence of anti-fungal agent (control).)	4 (Level of growth in the absence of anti-fungal agent (control).)	4 (Level of growth in the absence of anti-fungal agent (control).)	4 (Level of growth in the absence of anti-fungal agent (control).)	4 (Level of growth in the absence of anti-fungal agent (control).)		4 (Level of growth in the absence of anti-fungal agent (control).)				
CC1(O)c2c(Cl)ccc(O)c2C(=O)C2=C(O)C3(O)C(=O)C(C(N)=O)=C(O)CC3CC21 (centres unmarked) [COL 4, 7-chloro-4-dedimethylaminotetracycline]										demonstrated activity		demonstrated activity
NC(=O)C1=C(O)CC2CC3Cc4ccc(N)c(O)c4C(=O)C3=C(O)C2(O)C1=O (centres unmarked) [COL 308, 9-amino-6-demethyl-6-deoxy-4-dedimethylaminotetracycline]	0 (complete inhibition of growth.)	0 (complete inhibition of growth.)	4 (Level of growth in the absence of anti-fungal agent (control).)	4 (Level of growth in the absence of anti-fungal agent (control).)	4 (Level of growth in the absence of anti-fungal agent (control).)	4 (Level of growth in the absence of anti-fungal agent (control).)	0 (complete inhibition of growth.)	1 (75% reduction in growth in colonies compared to control.)		demonstrated activity		demonstrated activity
